We go through 5 compounds from patent publication US20140093558A1, “STABLE CRYSTAL MODIFICATIONS OF DOTAP CHLORIDE” (MERCK PATENT GMBH, priority 2011, published 2014).

Series [1] can be described thus: Hygroscopicity / handling properties. It is filed as physicochemical. As to conditions: crystalline forms.
The nature of series [2]: Storage stability of crystalline DOTAP chloride, remaining content by HPLC. It is filed as physicochemical. As to conditions: for stability values compared with crystalline (2R,S)-DOTAP chloride: storage as in Tables 1 and 1a; for remaining content of (2R,S)-DOTAP chloride (HPLC) / remaining content/purity of (2R,S)-DOTAP chloride (HPLC): exclusion of air. As to the method:
In order to determine the stability of crystalline (2R,S)-DOTAP chloride, the substance is stored at 25° C. and 60% relative humidity (table 1) or at 40° C. and 75% relative humidity (table 1a) with exclusion of air. The remaining content of (2R,S)-DOTAP chloride is measured at periodic intervals and quoted in comparison to the initial value.
The purity and content of DOTAP chloride are determined by means of HPLC using the following method:
HPLC equipment: Agilent 1200 HPLC • column: ODS-3: 150×3 mm, 3 μm. GI Sciences: lnertsil • eluent A: 10 mM pentanesulfonic acid sodium salt in 0.085%ic aqueous H3PO4 • eluent B: 3.85 mM pentanesulfonic acid sodium salt in 94% acetonitrile containing 0.085%ic aqueous H3PO4
• runtime: 25 min • flow: 1.5 ml/min • pressure: ca. 220 bar • column temperature: 50° C. • injection volume: 10 μl
The stability determination can be repeated at any desired time, the values indicated in Tables 1 and 1a are reproducible.

The conditions of series [3]: storage under protective gas at −20° C.; cited from earlier work.
The conditions of series [4]: amorphous form, normal atmospheric humidity levels; cited from earlier work.
The nature of series [5]: Solubility in acetonitrile. It counts as physicochemical. The settings on record: room temperature.
For series [6] the following is noted: some in-vitro studies, compared with DOTAP chloride; cited from earlier work.
Where [7] appears, read: 25° C., 60% relative humidity, 0 months.
The mark [8] stands for this setting: 25° C., 60% relative humidity, 3 months.
Setting [9] is: 25° C., 60% relative humidity, 6 months.
Setting [10] is: 25° C., 60% relative humidity, 9 months.
Setting [11] is: 25° C., 60% relative humidity, 12 months.
[12] abbreviates: 25° C., 60% relative humidity, 24 months.
Setting [13] is: 25° C., 60% relative humidity, 36 months.
Where [14] appears, read: 40° C., 75% relative humidity, 0 months.
Setting [15] is: 40° C., 75% relative humidity, 3 months.
[16] abbreviates: 40° C., 75% relative humidity, 6 months.
Setting [17] is: 40° C., 75% relative humidity, 9 months.
The mark [18] stands for this setting: 40° C., 75% relative humidity, 12 months.

Like-named read-outs stand apart in the source and are kept apart here.

As to “(S)-1,2-dioleoyl-3-propyltrimethylammonium chloride [Crystalline (2S)-DOTAP chloride]”, in series [1], the hygroscopicity entry is on record as “remarkably reduced hygroscopicity”. Besides, the “stability values compared with crystalline (2R,S)-DOTAP chloride” value in series [2] was “Crystalline (2R)- and (2S)-DOTAP chloride show comparable stability values”.
For the compound `CCCCCCCC/C=C\CCCCCCCC(=O)OCC(C[N+](C)(C)C)OC(=O)CCCCCCC/C=C\CCCCCCCC.[Cl-]` (stereo not shown) [amorphous DOTAP chloride, 1,2-dioleoyloxy-3-trimethylammonium propane chloride], the “shelf life guaranteed by the manufacturer” value in series [3] is given as “about 6 months”. Moreover, the hygroscopicity result in series [4] is given as “extremely hygroscopic”.
For the compound `CCCCCCCC/C=C\CCCCCCCC(=O)OCC(C[N+](C)(C)C)OC(=O)CCCCCCC/C=C\CCCCCCCC.[Cl-]` (racemic) [(2R,S)-DOTAP chloride crystalline, (R,S)-1,2-dioleoyl-3-propyltrimethylammonium chloride], the solubility in acetonitrile result in series [5] is listed as “virtually insoluble”. In addition, in series [1], the hygroscopicity entry is reported as “remarkably reduced hygroscopicity”. Besides, the “remaining content of (2R,S)-DOTAP chloride (HPLC)” value in series [2] (setting [7]) was 99.5 % by weight; in series [2] (setting [8]), 99.7 % by weight; in series [2] (setting [9]), 99.4 % by weight; in series [2] (setting [10]) it was 99.2 % by weight; in series [2] (setting [11]) it was 99.5 % by weight; in series [2] (setting [12]), 99.5 % by weight. Further, the “remaining content of (2R,S)-DOTAP chloride (HPLC)” value in series [2] (setting [13]) is 99.7 % by weight; in series [2] (setting [14]) it was 99.5 % by weight; in series [2] (setting [15]), 99.6 % by weight; in series [2] (setting [16]), 99.6 % by weight; in series [2] (setting [17]), 98.9 % by weight; in series [2] (setting [18]) it was 99.7 % by weight. Also, the “remaining content/purity of (2R,S)-DOTAP chloride (HPLC)” value in series [2] (setting [7]) is 99.7 Area-%; in series [2] (setting [8]), 99.6 Area-%; in series [2] (setting [9]), 99.5 Area-%; in series [2] (setting [10]), 99.2 Area-%; in series [2] (setting [11]), 99.5 Area-%; in series [2] (setting [12]) it was 99.7 Area-%. The “remaining content/purity of (2R,S)-DOTAP chloride (HPLC)” value in series [2] (setting [13]) worked out at 99.3 Area-%; in series [2] (setting [14]) it was 99.7 Area-%; in series [2] (setting [15]) it was 99.6 Area-%; in series [2] (setting [16]) it was 99.4 Area-%; in series [2] (setting [17]), 99.3 Area-%; in series [2] (setting [18]) it was 99.4 Area-%. The degradation on storage result in series [2] (25 ± 2° C., after 36 months) was “The above stability data confirms that crystalline DOTAP chloride is a stable substance. Even after 36-months no significant degradation was observed for the samples stored at 25 ± 2 °C”; in series [2] (accelerated conditions, 40 ± 2° C., after 12 months), “The above stability data confirms that crystalline DOTAP Chloride is a stable substance. Even at accelerated conditions after 12-months no significant degradation was observed for the samples stored at 40 ± 2 °C”. The “stability determined by HPLC in relation to the starting value” was “higher than 99 % by weight and area-%” in series [2] (stored at 25° C. for 36 months); “higher than 99 % by weight and area-%” in series [2] (stored at 40° C. for 12 months).
For `CCCCCCCC/C=C\CCCCCCCC(=O)OCC(C[N+](C)(C)C)OC(=O)CCCCCCC/C=C\CCCCCCCC.COS(=O)(=O)[O-]` (stereo not shown) [DOTAP methylsulfate], the transfection rate entry in series [6] is recorded as “better transfection rates than DOTAP chloride”.
On to “(R)-1,2-dioleoyl-3-propyltrimethylammonium chloride [Crystalline (2R)-DOTAP chloride]”, for which the hygroscopicity entry in series [1] was “remarkably reduced hygroscopicity”. In addition, the “stability values compared with crystalline (2R,S)-DOTAP chloride” value in series [2] was “Crystalline (2R)- and (2S)-DOTAP chloride show comparable stability values”.
